According to patent US10758534B2 (Vertex Pharmaceuticals Incorporated, priority 2014, dated 2020):
Each block holds one compound with its values, some of them ahead of it.

Biological target: T1, F508del (Homo sapiens, UniProt P13569, DEL508-508)
T1 construct: expressed in transfected cells
Assay: Protocol 2: FRET membrane potential optical assay (VIPR), identification of correction compounds
Assay type: cell-based
Settings: Table 3; compounds of Table 1 as modulators of CFTR activity; protocol not stated
Procedure, shortened: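 Mouse NIH3T3 cells, stable F508del; cpd 16 hrs, 37° C., serum-free; pos ctrl 27° C. 16 hrs. Rinse in Krebs Ringers, dye load, then add 10 μM forskolin + 20 μM genistein with Cl^−-free (gluconate) medium; depolarization by FRET voltage dyes.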

T1 sequence (P13569 with tags, fused parts or gaps DEL508-508): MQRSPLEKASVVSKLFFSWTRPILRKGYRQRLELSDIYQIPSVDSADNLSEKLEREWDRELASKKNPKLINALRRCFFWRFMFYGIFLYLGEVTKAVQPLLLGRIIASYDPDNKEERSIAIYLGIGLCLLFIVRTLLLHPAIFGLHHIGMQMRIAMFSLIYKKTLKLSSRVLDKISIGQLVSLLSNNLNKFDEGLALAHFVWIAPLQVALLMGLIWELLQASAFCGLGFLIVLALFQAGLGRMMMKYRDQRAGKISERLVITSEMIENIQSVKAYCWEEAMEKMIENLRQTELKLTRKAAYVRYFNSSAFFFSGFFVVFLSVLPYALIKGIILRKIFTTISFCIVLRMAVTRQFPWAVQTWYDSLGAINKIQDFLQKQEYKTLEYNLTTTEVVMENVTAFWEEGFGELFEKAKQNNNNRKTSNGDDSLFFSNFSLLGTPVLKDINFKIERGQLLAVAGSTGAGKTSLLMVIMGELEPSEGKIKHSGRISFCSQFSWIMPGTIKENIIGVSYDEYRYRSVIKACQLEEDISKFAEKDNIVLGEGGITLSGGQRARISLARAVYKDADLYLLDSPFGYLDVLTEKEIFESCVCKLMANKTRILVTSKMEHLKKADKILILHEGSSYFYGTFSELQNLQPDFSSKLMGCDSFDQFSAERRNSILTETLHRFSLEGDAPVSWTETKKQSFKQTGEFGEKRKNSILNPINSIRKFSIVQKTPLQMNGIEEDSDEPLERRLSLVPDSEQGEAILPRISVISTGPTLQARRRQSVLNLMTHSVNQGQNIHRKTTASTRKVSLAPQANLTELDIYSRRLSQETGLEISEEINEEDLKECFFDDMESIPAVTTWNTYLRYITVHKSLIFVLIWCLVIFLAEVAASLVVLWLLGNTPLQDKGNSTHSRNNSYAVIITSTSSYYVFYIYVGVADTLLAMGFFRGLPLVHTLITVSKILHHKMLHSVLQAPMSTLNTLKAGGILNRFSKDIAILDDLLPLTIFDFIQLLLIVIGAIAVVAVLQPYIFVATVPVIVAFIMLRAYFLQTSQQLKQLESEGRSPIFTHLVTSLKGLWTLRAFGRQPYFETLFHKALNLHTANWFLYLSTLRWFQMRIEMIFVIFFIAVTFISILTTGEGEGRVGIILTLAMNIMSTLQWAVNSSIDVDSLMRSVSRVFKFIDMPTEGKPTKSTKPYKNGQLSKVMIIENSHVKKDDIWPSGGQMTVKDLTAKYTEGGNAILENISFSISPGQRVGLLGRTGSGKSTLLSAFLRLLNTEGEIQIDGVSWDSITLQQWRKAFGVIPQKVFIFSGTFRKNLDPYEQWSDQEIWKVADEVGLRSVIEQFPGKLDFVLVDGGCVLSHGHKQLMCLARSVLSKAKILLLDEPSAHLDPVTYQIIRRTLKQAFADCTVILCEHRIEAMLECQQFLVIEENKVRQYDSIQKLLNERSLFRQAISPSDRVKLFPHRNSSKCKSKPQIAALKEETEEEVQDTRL

EC30: +++ (“+++” means <3 uM)
SMILES: Cc1cc(C)c(Oc2nc(-n3nc(C(F)(F)F)cc3C)ccc2C(=O)NS(=O)(=O)c2cccc(N)n2)c(C)c1 [Compound 633, N-[(6-amino-2-pyridyl)sulfonyl]-6-[5-methyl-3-(trifluoromethyl)pyrazol-1-yl]-2-(2,4,6-trimethylphenoxy)pyridine-3-carboxamide]

EC30: +++ (“+++” means <3 uM)
SMILES: Cc1ccc(Oc2nc3c(cc2C(=O)NS(=O)(=O)c2ccc[nH]c2=O)CCCC3(C)C)c(C)c1 [Compound 634, 2-(2,4-dimethylphenoxy)-8,8-dimethyl-N-[(2-oxo-1H-pyridin-3-yl)sulfonyl]-6,7-dihydro-5H-quinoline-3-carboxamide]

EC30: + (“+” means greater than 10 uM)
SMILES: Cc1ccc(-c2nc3c(cc2C(=O)NS(=O)(=O)c2ccc(N)nc2)CCCC3(C)C)cc1 [Compound 635, N-[(6-amino-3-pyridyl)sulfonyl]-8,8-dimethyl-2-(p-tolyl)-6,7-dihydro-5H-quinoline-3-carboxamide]

EC30: ++ (“++” means between 3 uM and 10 uM)
SMILES: Cc1ccc(-c2nc(C(C)(C)C)ccc2C(=O)NS(=O)(=O)c2cccnc2N)cc1 [Compound 636, N-[(2-amino-3-pyridyl)sulfonyl]-6-tert-butyl-2-(p-tolyl)pyridine-3-carboxamide]

EC30: ++ (“++” means between 3 uM and 10 uM)
SMILES: CCOc1ccc(C(=O)NS(=O)(=O)c2cccc(N)n2)c(Oc2c(C)cc(C)cc2C)n1 [Compound 637, N-[(6-amino-2-pyridyl)sulfonyl]-6-ethoxy-2-(2,4,6-trimethylphenoxy)pyridine-3-carboxamide]

EC30: ++ (“++” means between 3 uM and 10 uM)
SMILES: Cc1cc(C)c(Oc2nc(-c3ccc(CC#N)cc3)ccc2C(=O)NS(=O)(=O)c2cccc(N)n2)c(C)c1 [Compound 638, N-[(6-amino-2-pyridyl)sulfonyl]-6-[4-(cyanomethyl)phenyl]-2-(2,4,6-trimethylphenoxy)pyridine-3-carboxamide]

EC30: +++ (“+++” means <3 uM)
SMILES: CCOc1ccc(-c2ccc(C(=O)NS(=O)(=O)c3cccc(N)n3)c(Oc3ccc(C)cc3C)n2)cc1 [Compound 641, N-[(6-amino-2-pyridyl)sulfonyl]-2-(2,4-dimethylphenoxy)-6-(4-ethoxyphenyl)pyridine-3-carboxamide]

EC30: ++ (“++” means between 3 uM and 10 uM)
SMILES: CC1CN(c2nc(-c3ccncc3)ccc2C(=O)NS(=O)(=O)c2cccc(N)n2)C(C)(C)C1 (stereo not drawn) [Compound 643, N-[(6-amino-2-pyridyl)sulfonyl]-6-(4-pyridyl)-2-(2,2,4-trimethylpyrrolidin-1-yl)pyridine-3-carboxamide]

EC30: +++ (“+++” means <3 uM)
SMILES: CCCOc1cc(-c2ccc(C(=O)NS(=O)(=O)c3cccc(N)n3)c(N3CC(C)CC3(C)C)n2)ccc1Cl (stereo not drawn) [Compound 644, N-[(6-amino-2-pyridyl)sulfonyl]-6-(4-chloro-3-propoxy-phenyl)-2-(2,2,4-trimethylpyrrolidin-1-yl)pyridine-3-carboxamide]

EC30: ++ (“++” means between 3 uM and 10 uM)
SMILES: Cc1cc(C)c(Oc2nc(-c3cc(F)cc(OC(C)C)c3)ccc2C(=O)NS(=O)(=O)c2ccc[nH]c2=O)c(C)c1 [Compound 645, 6-(3-fluoro-5-isopropoxy-phenyl)-N-[(2-oxo-1H-pyridin-3-yl)sulfonyl]-2-(2,4,6-trimethylphenoxy)pyridine-3-carboxamide]

EC30: ++ (“++” means between 3 uM and 10 uM)
SMILES: CNc1cccc(S(=O)(=O)NC(=O)c2ccc(C)nc2Oc2c(C)cc(C)cc2C)n1 [Compound 646, 6-methyl-N-[[6-(methylamino)-2-pyridyl]sulfonyl]-2-(2,4,6-trimethylphenoxy)pyridine-3-carboxamide]

The remaining lines, values behind:

SMILES: CC1CC(C)CN(c2nc(C(C)(C)C)ccc2C(=O)NS(=O)(=O)c2cccc(N)n2)C1 (stereo not drawn) [Compound 617, N-[(6-amino-2-pyridyl)sulfonyl]-6-tert-butyl-2-(3,5-dimethyl-1-piperidyl)pyridine-3-carboxamide]
EC30: +++ (“+++” means <3 uM)

SMILES: CCC1(COc2nc(-c3cc(F)cc(OCC(C)C)c3)ccc2C(=O)NS(=O)(=O)c2cccc(N)n2)COC1 [Compound 618, N-[(6-amino-2-pyridyl)sulfonyl]-2-[(3-ethyloxetane-3-yl)methoxy]-6-(3-fluoro-5-isobutoxy-phenyl)pyridine-3-carboxamide]
EC30: ++ (“++” means between 3 uM and 10 uM)

SMILES: CCC1CCN(c2nc(-c3ccc(OC(C)C)nc3)ccc2C(=O)NS(=O)(=O)c2cccc(N)n2)CC1 [Compound 619, N-[(6-amino-2-pyridyl)sulfonyl]-2-(4-ethyl-1-piperidyl)-6-(6-isopropoxy-3-pyridyl)pyridine-3-carboxamide]
EC30: +++ (“+++” means <3 uM)

SMILES: CC(C)COc1cc(F)cc(-c2ccc(C(=O)NS(=O)(=O)c3ccccc3)c(N3CC(C)CC3(C)C)n2)c1 (stereo not drawn) [Compound 620, N-(benzenesulfonyl)-6-(3-fluoro-5-isobutoxy-phenyl)-2-(2,2,4-trimethylpyrrolidin-1-yl)pyridine-3-carboxamide]
EC30: +++ (“+++” means <3 uM)

SMILES: Cc1cc(C)c(Oc2nc(C3(C(F)(F)F)CC3)ccc2C(=O)NS(=O)(=O)c2cccc(N)n2)c(C)c1 [Compound 621, N-[(6-amino-2-pyridyl)sulfonyl]-6-[1-(trifluoromethyl)cyclopropyl]-2-(2,4,6-trimethylphenoxy)pyridine-3-carboxamide]
EC30: +++ (“+++” means <3 uM)

SMILES: Cc1cc(C)c(Oc2nc(-c3ccc(F)cc3O)ccc2C(=O)NS(=O)(=O)c2cccc(N)n2)c(C)c1 [Compound 622, N-[(6-amino-2-pyridyl)sulfonyl]-6-(4-fluoro-2-hydroxy-phenyl)-2-(2,4,6-trimethylphenoxy)pyridine-3-carboxamide]
EC30: +++ (“+++” means <3 uM)

SMILES: Cc1ccc(-c2nc(C(C)(C)C)ccc2C(=O)NS(=O)(=O)c2ccccc2C#N)cc1 [Compound 623, 6-tert-butyl-N-(2-cyanophenyl)sulfonyl-2-(p-tolyl)pyridine-3-carboxamide]
EC30: ++ (“++” means between 3 uM and 10 uM)

SMILES: COc1cc(-c2ccc(C(=O)NS(=O)(=O)c3ccc[nH]c3=O)c(Oc3c(C)cc(C)cc3C)n2)ccc1F [Compound 624, 6-(4-fluoro-3-methoxy-phenyl)-N-[(2-oxo-1H-pyridin-3-yl)sulfonyl]-2-(2,4,6-trimethylphenoxy)pyridine-3-carboxamide]
EC30: ++ (“++” means between 3 uM and 10 uM)

SMILES: CC(C)Oc1ccc(-c2ccc(C(=O)NS(=O)(=O)c3cccc(N)n3)c(N3CCC(c4ccccc4)C3C)n2)cn1 (stereo not drawn) [Compound 625, N-[(6-amino-2-pyridyl)sulfonyl]-6-(6-isopropoxy-3-pyridyl)-2-(2-methyl-3-phenyl-pyrrolidin-1-yl)pyridine-3-carboxamide]
EC30: +++ (“+++” means <3 uM)

SMILES: CC(C)(C)c1ccc(C(=O)NS(=O)(=O)c2cccc(N)n2)c(N2CCC[C@H](c3ccccc3)C2)n1 [Compound 626, N-[(6-amino-2-pyridyl)sulfonyl]-6-tert-butyl-2-[(3R)-3-phenyl-1-piperidyl]pyridine-3-carboxamide]
EC30: +++ (“+++” means <3 uM)

SMILES: Cc1cc(C)c(Cn2c(C(=O)NS(=O)(=O)c3ccnc(N)c3)cc3ccccc32)c(C)c1 [Compound 627, N-[(2-amino-4-pyridyl)sulfonyl]-1-[(2,4,6-trimethylphenyl)methyl]indole-2-carboxamide]
EC30: + (“+” means greater than 10 uM)

SMILES: Cc1cc(C)c(CN2CCc3ccccc3CC2C(=O)NS(=O)(=O)c2cc[nH]n2)c(C)c1 (stereo not drawn) [Compound 628, N-(1H-pyrazol-3-ylsulfonyl)-3-[(2,4,6-trimethylphenyl)methyl]-1,2,4,5-tetrahydro-3-benzazepine-4-carboxamide]
EC30: +++ (“+++” means <3 uM)

SMILES: COc1cc(C)cc(OC)c1-c1ccc(C(=O)NS(=O)(=O)c2cccc(N)n2)c(Oc2c(C)cc(C)cc2C)n1 [Compound 629, N-[(6-amino-2-pyridyl)sulfonyl]-6-(2,6-dimethoxy-4-methyl-phenyl)-2-(2,4,6-trimethylphenoxy)pyridine-3-carboxamide]
EC30: +++ (“+++” means <3 uM)

SMILES: CC(C)c1ccc(-c2ccc(C(=O)NS(=O)(=O)c3cccc(N)n3)c(N3C[C@@H](C)CC3(C)C)n2)cc1 [Compound 630, N-[(6-amino-2-pyridyl)sulfonyl]-6-(4-isopropylphenyl)-2-[(4S)-2,2,4-trimethylpyrrolidin-1-yl]pyridine-3-carboxamide]
EC30: +++ (“+++” means <3 uM)

SMILES: CC(C)Cn1cc(-c2ccc(C(=O)NS(=O)(=O)c3cccc(N)n3)c(N3CC(C)CC3(C)C)n2)cn1 (stereo not drawn) [Compound 631, N-[(6-amino-2-pyridyl)sulfonyl]-6-(1-isobutylpyrazol-4-yl)-2-(2,2,4-trimethylpyrrolidin-1-yl)pyridine-3-carboxamide]
EC30: +++ (“+++” means <3 uM)

SMILES: Cc1ccc(-c2nc(C(C)(C)C)ccc2C(=O)NS(=O)(=O)c2ccn[nH]2)cc1 [Compound 632, 6-tert-butyl-2-(p-tolyl)-N-(1H-pyrazol-5-ylsulfonyl)pyridine-3-carboxamide]
EC30: ++ (“++” means between 3 uM and 10 uM)

SMILES: Cc1cccc(C)c1Oc1nc(-c2cc(F)cc(OCC(C)C)c2)ccc1C(=O)NS(=O)(=O)c1cccc(N)n1 [Compound 639, N-[(6-amino-2-pyridyl)sulfonyl]-2-(2,6-dimethylphenoxy)-6-(3-fluoro-5-isobutoxy-phenyl)pyridine-3-carboxamide]
EC30: +++ (“+++” means <3 uM)

SMILES: CC(C)COc1cc(F)cc(-c2ccc(C(=O)NS(=O)(=O)c3cccc(N)n3)c(OCC3CCO3)n2)c1 (stereo not drawn) [Compound 640, N-[(6-amino-2-pyridyl)sulfonyl]-6-(3-fluoro-5-isobutoxy-phenyl)-2-(oxetan-2-ylmethoxy)pyridine-3-carboxamide]
EC30: ++ (“++” means between 3 uM and 10 uM)

SMILES: CC(C)COc1cc(F)cc(-c2ccc(C(=O)NS(=O)(=O)c3ccn[nH]3)c(N3C[C@H](C)C[C@H](C)C3)n2)c1 [Compound 642, 2-[(3R,5S)-3,5-dimethyl-1-piperidyl]-6-(3-fluoro-5-isobutoxy-phenyl)-N-(1H-pyrazol-5-ylsulfonyl)pyridine-3-carboxamide]
EC30: +++ (“+++” means <3 uM)
